In patent publication US10851073B2, “Protein tyrosine phosphatase inhibitors and methods of use thereof” (Calico Life Sciences LLC, priority 2019, dated 2020):
Read-outs that look alike come from different tables or passages of the source.

Assays:
[1] = system: B16F10 mouse melanoma cells; experiment: B16F10 IFNγ-induced cellular growth inhibition assay; format: cell-based; conditions: B16-F10, with 0.5 ng/mL IFNγ
In short: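 B16F10 cells grown in DMEM+10% FBS, with or without 0.5 ng/mL final mouse IFNγ, and dosed in triplicate at 100 μM to 0.001 μM final (0.1% DMSO). Confluence imaged every 6 h for 5 days; percent growth inhibition versus DMSO/with-IFNγ control taken once DMSO/no-IFNγ wells exceeded 95% confluence, giving IC50.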

[2] = system: Pan T cells isolated from C57BL6 splenocytes; experiment: T cell function assays (IFNγ and TNFα in supernatants); format: cell-based, mouse; conditions: 0.3 μM compound, 3 days
Protocol: Example 231: T Cell Function Assays Pan T cells were isolated from C57BL6 splenocytes using a MACS Pan T cell isolation kit II (Miltenyi Biotec, Auburn, Calif.) according to the manufacturer's instructions. Isolated T cells (200,000 cells/well in a 96 well flat-bottom plate) were cultured in RPMI 1640 supplemented with 10% FBS, […] 2-mercaptoethanol, 100 U/mL penicillin, and 100 μg/mL streptomycin, and incubated with 0.3 μM compound or DMSO in duplicates. After 1 hour, mouse T cell activator CD3/CD28 Dynabeads (ThermoFisher Scientific, Waltham, Mass.) were added at a 1:5 beads to cells ratio to stimulate the T cells for 3 days. T cells with or without compound were incubated in the absence of T cell activator beads to evaluate if compounds nonspecifically stimulate the T cells. After 3 days of stimulation, supernatants were collected and IFNγ and TNFα in supernatants were assessed using an MSD V-plex assay (Meso Scale Discovery, Rockville, Md.).

[3] = system: IFNγ-induced STAT1 phosphorylation in CD14+ monocytes; experiment: Human whole blood pSTAT1 proximal pharmacodynamic (PD) assay; format: cell-based; conditions: Monocyte, 3 hours compound, IFNγ 20 minutes
Protocol: Example 230: Human Whole Blood pSTAT1 Proximal Pharmacodynamic (PD) Assay Human blood samples were acquired through internal AbbVie Inc's blood donation program in accordance with AbbVie's Occupational Safety and Health Administration protocols. Blood was collected by venipuncture into sodium heparin coated vacutainer tubes and kept at room temperature for no longer than 1 hour prior to the experiment initiation. Human blood samples (90 μL) were added to the individual wells of 96-well plates containing 10 μL of 10× working stock solutions of increasing concentrations of compounds to achieve final concentrations ranging from 0.025 μM to 500 μM and incubated for 3 hours at 37° C. To induce STAT1 phosphorylation the samples were then treated with recombinant human IFNγ (R&D Systems, Catalog^#285-IF, Minneapolis, Minn.; 100 nM final concentration) for 20 minutes, and 3 μL/well BV421 labeled anti-CD14 surface antibody (Biolegend, San Diego, Calif., Catalog^#301830) was added for 45 minutes before fixation and red blood cell lysis was performed with BD Phosflow Lyse/Fix buffer (BD Biosciences, San Jose, Calif., Catalog^#558049). Cells were subsequently permeabilized on ice by the addition of BD Perm III buffer (BD Biosciences, San Jose, Calif., Catalog^#558050) and stored at -80° C. until use. Before staining, the cells were washed with PBS containing 0.1% BSA. Optim/zed concentrations of BUV395 labeled anti-CD45 (BD Biosciences, San Jose, Calif., Catalog^#563792) and PE labeled anti-phospho-STAT1 ([…]; Invitrogen, Carlsbad, Calif., Catalog^#12-9008-42) antibodies were added to the cell suspensions and incubated for 2 hours. The cells were washed with PBS containing 0.1% BSA and analyzed on a BD LSRFortessaTM X20 flow cytometer (BD Biosciences, San Jose, Calif.) using BD FACSDivaTM software. The data was analyzed using FlowJo V10 analysis software (Flow Jo LLC, Ashland, Oreg.). The amount of STAT phosphorylation was measured by the mean fluorescence intensity (MFI) of pSTAT1 in CD14+monocytes. Compound dose-response curves were determined using a four-parameter logistic-nonlinear regression model from which half maximal effective concentrations (EC50) were calculated. All statistical analyses utilized GraphPad software (San Diego, Calif.).

[4] = target: T1, His tagged PTPN2 (TC45) protein (Homo sapiens, UniProt P17706); experiment: Mobility shift assay used to determine potency of PTPN2 inhibitors; format: biochemical; conditions: enzyme 0.5 nM, substrate 2 μM; read-out: PTPN2 MSA IC50
T1 construct: made in house
T1 sequence (P17706 with tags, fused parts or gaps isoform P17706-2): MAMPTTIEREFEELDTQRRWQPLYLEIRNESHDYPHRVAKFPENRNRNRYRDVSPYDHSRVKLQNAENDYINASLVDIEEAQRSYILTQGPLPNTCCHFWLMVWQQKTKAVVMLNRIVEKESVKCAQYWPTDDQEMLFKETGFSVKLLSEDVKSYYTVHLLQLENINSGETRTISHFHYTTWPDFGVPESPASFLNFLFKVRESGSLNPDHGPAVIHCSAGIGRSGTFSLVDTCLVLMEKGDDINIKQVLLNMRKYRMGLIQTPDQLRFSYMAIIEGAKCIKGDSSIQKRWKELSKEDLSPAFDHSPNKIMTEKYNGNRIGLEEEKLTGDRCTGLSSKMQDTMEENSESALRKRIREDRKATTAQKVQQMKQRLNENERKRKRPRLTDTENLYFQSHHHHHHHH
In short: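 Enzyme (0.5 nM) preincubated with compound (12-point, 1:3 dilution) 10 min at room temperature in 50 mM HEPES pH 7.5, 1 mM EGTA, 10 mM EDTA, 0.01% Tween 20, 2 mM DTT; OG488-labelled phospho-insulin-receptor peptide substrate (2 μM) added for 10 min, then quenched. Microfluidic mobility shift (ex 488/em 530 nm) gave % conversion; IC50 from % inhibition.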

[5] = read-out: B16F10 Growth Inhibition IC50

IC50 [1, 5] [nM] | EC50 [3] [nM] | IC50 ([1]; read-out: B16F10 GI IC50) [nM] | SMILES | IFNγ [pg/mL] anti-CD3/CD28 ([2]; anti-CD3/CD28 stimulation) [pg/mL] | TNFα [pg/mL] anti-CD3/CD28 ([2]; anti-CD3/CD28 stimulation) [pg/mL] | IFNγ [pg/mL] no stimulation ([2]; no stimulation) [pg/mL] | TNFα [pg/mL] no stimulation ([2]; no stimulation) [pg/mL] | IC50 [4] [nM]
5800 | 38000 |  | CC(C)(O)CCOc1ccc2cc(O)c(N3CC(=O)NS3(=O)=O)c(F)c2c1 [Compound Y] | 67.2 | 32.5 | 1.2 | 1.0 | 
< 50 | 400 | < 1000 | O=C1CN(c2c(O)cc3c(c2F)C[C@H](NCCCC(F)(F)F)CC3)S(=O)(=O)N1 (single isomer, unassigned) [Compound 146] |  |  |  |  | 1 to 10
< 50 | 2400 | < 1000 | O=C1CN(c2c(O)cc3c(c2F)C[C@H](NCCC2CCCC2)CC3)S(=O)(=O)N1 [Compound 200, 5-{(7R)-7-[(2-cyclopentylethyl)amino]-1-fluoro-3-hydroxy-5,6,7,8-tetrahydronaphthalen-2-yl}-1λ^6,2,5-thiadiazolidine-1,1,3-trione] |  |  |  |  | 
17800 | > 500000 |  | CCC1CCc2cc(O)c(N3CC(=O)NS3(=O)=O)c(F)c2C1 (stereo not drawn) [Compound Z] |  |  |  |  | 
